The results in this text go back to PubChem BioAssay (NCI).

“And” between values parts separate entries of the source, which are not always exact repeats. Identical values can stand only once.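 Test compounds were applied to cells in 96-well plates for 48 hours at 5 doses. GI50 is the concentration that inhibits growth by half. The concentration for full growth arrest is given as TGI.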

Test systems include ACHN renal; HOP-62 NSCLC; MOLT-4 leukemia; NCI/ADR-RES ovarian; OVCAR-3 ovarian; OVCAR-5 ovarian; RXF 393 renal; SF-295 CNS; SNB-75 CNS; SW-620 colon.
Assay in all cases: NCI tumour cell line growth inhibition, 48 h

For the molecule `CC(=O)NC(CS)C(=O)O` (stereo not drawn), the GI50 in the experiment with ACHN renal was above 100000 nM; in the experiment with MOLT-4 leukemia, above 100000 nM; in the experiment with NCI/ADR-RES ovarian it was above 100000 nM; in the experiment with OVCAR-3 ovarian, above 100000 nM; with OVCAR-5 ovarian it was above 100 µM; in the experiment on RXF 393 renal it was above 100000 nM. In addition, the GI50 in the experiment on SF-295 CNS, with SNB-75 CNS and in the experiment on SW-620 colon was above 100000 nM each time. The TGI with ACHN renal is above 100 µM; in the experiment with HOP-62 NSCLC, 45500 µM; in the experiment on MOLT-4 leukemia it was above 100 µM; in the experiment on NCI/ADR-RES ovarian, > 100 µM and 81500 µM; in the experiment with OVCAR-3 ovarian, > 100 µM and 58500 µM; in the experiment on OVCAR-5 ovarian, > 100 µM and 66200 µM. In addition, the TGI in the experiment with RXF 393 renal is > 100 µM and 69300 µM; with SF-295 CNS, > 100 µM and 57700 µM; in the experiment with SNB-75 CNS, > 100 µM and 89800 µM; in the experiment with SW-620 colon, above 100 µM.
`CCC(CC)c1cc(N[C@H]2CC[C@H](N)C2)n2nccc2n1`: the GI50 in the experiment with ACHN renal was 1440 nM; in the experiment on HOP-62 NSCLC, 990 nM; with MOLT-4 leukemia it was 1360 nM; in the experiment with NCI/ADR-RES ovarian it was 6410 nM; in the experiment with OVCAR-3 ovarian, 1010 nM; in the experiment with OVCAR-5 ovarian it was 0.533 µM. Also, the GI50 in the experiment with RXF 393 renal was 632 nM; in the experiment with SF-295 CNS, 1830 nM; in the experiment with SNB-75 CNS it was 1280 nM; with SW-620 colon, 626 nM. In addition, the TGI with ACHN renal, in the experiment on HOP-62 NSCLC, with MOLT-4 leukemia, in the experiment with NCI/ADR-RES ovarian, with OVCAR-3 ovarian and in the experiment on OVCAR-5 ovarian was above 100 µM each time. The TGI was 2.36 µM in the experiment with RXF 393 renal, above 100 µM in the experiment on SF-295 CNS, 3.32 µM in the experiment with SNB-75 CNS and above 100 µM in the experiment with SW-620 colon.
With `COc1cc(N2CCN(C(C)C)CC2)ccc1Nc1nc(Nc2ccc(F)cc2C(=O)NCC(O)CO)c2cc[nH]c2n1` (stereo not drawn), the GI50 in the experiment on ACHN renal was above 25000 nM; in the experiment on HOP-62 NSCLC, 4090 nM; with MOLT-4 leukemia, 8680 nM; in the experiment with NCI/ADR-RES ovarian, above 25000 nM; in the experiment with OVCAR-3 ovarian, above 25000 nM; in the experiment on OVCAR-5 ovarian, 4.28 µM. Besides, the GI50 is 11400 nM in the experiment on RXF 393 renal, 11400 nM in the experiment on SF-295 CNS, 13300 nM in the experiment on SNB-75 CNS and 2050 nM in the experiment on SW-620 colon. Further, the TGI in the experiment with ACHN renal, in the experiment on HOP-62 NSCLC, in the experiment on MOLT-4 leukemia, in the experiment on NCI/ADR-RES ovarian, with OVCAR-3 ovarian and in the experiment with OVCAR-5 ovarian was above 25 µM throughout. Moreover, the TGI in the experiment with RXF 393 renal, in the experiment on SF-295 CNS, in the experiment with SNB-75 CNS and in the experiment with SW-620 colon was above 25 µM throughout.
In the case of `C=C[C@H]1CN2CCc3c([nH]c4c([C@@H]5CCCN5C)c(O)ccc34)[C@@H]2C[C@@H]1C[C@H]1c2[nH]c3ccccc3c2CCN1C`, the TGI with ACHN renal is 3.39 µM and 3.1 µM and 3.32 µM; with HOP-62 NSCLC, 2.87 µM and 2.74 µM and 2.45 µM; with NCI/ADR-RES ovarian it was 3.34 µM and 3.52 µM; in the experiment with OVCAR-3 ovarian, 2.8 µM and 3.16 µM; in the experiment on OVCAR-5 ovarian, 3.29 µM and 3.31 µM and 3.39 µM; in the experiment with RXF 393 renal, 0.913 µM and 1.52 µM. Further, the TGI in the experiment with SF-295 CNS worked out at 3.05 µM; with SNB-75 CNS, 2.47 µM. In addition, the GI50 in the experiment with MOLT-4 leukemia is 412 nM; in the experiment on SW-620 colon it was 2480 nM.
As to `NC(=O)c1cc(I)ccc1NC(=O)/C=C/c1ccccc1Cl`, the GI50 is 2440 nM with ACHN renal; 4900 nM with HOP-62 NSCLC; 765 nM in the experiment with MOLT-4 leukemia; 506 nM in the experiment on NCI/ADR-RES ovarian; 271 nM in the experiment on OVCAR-3 ovarian; 3.8 µM in the experiment on OVCAR-5 ovarian. Moreover, the GI50 with RXF 393 renal is 375 nM; in the experiment with SF-295 CNS, 592 nM; in the experiment on SNB-75 CNS, 995 nM; in the experiment on SW-620 colon it was 462 nM. The TGI in the experiment on ACHN renal was above 73.6 µM; with HOP-62 NSCLC it was 33.5 µM; in the experiment on NCI/ADR-RES ovarian, 4.65 µM; in the experiment with OVCAR-3 ovarian, 0.638 µM; in the experiment on OVCAR-5 ovarian, 37.2 µM; with RXF 393 renal, 2.18 µM. Further, the results for the TGI with SF-295 CNS, with SNB-75 CNS and in the experiment on SW-620 colon were 19 µM, 25.3 µM and above 39.6 µM, respectively.
Take `CCCCCCCCCCCCNC(=O)N[C@H](C(=O)N[C@H]1/C=C/CCNC(=O)/C=C/[C@H](C)NC1=O)C(C)C`: the GI50 in the experiment with ACHN renal was 1870 nM; with HOP-62 NSCLC it was 53.8 nM; in the experiment with MOLT-4 leukemia, 44.8 nM; in the experiment with NCI/ADR-RES ovarian it was above 100000 nM; with OVCAR-3 ovarian, 56.6 nM; in the experiment on OVCAR-5 ovarian, 0.0271 µM. The GI50 in the experiment on RXF 393 renal was 16.6 nM; in the experiment with SF-295 CNS it was 239 nM; with SNB-75 CNS it was 34.5 nM; in the experiment with SW-620 colon, 50.4 nM. For the same molecule, the TGI in the experiment with ACHN renal is above 100 µM; in the experiment on HOP-62 NSCLC, 0.178 µM; in the experiment with MOLT-4 leukemia, 1.13 µM; in the experiment on NCI/ADR-RES ovarian, above 100 µM; in the experiment on OVCAR-3 ovarian, 0.935 µM; in the experiment on OVCAR-5 ovarian, 0.114 µM. Further, the TGI with RXF 393 renal was 0.0405 µM; in the experiment with SF-295 CNS it was 1.45 µM; with SNB-75 CNS it was 0.155 µM; in the experiment with SW-620 colon it was 1.34 µM.
As for `O=c1c2cccc(F)c2sc2c(NCCCNCCO)nc3ccccc3c12`, the GI50 was 1280 nM in the experiment with ACHN renal; 1540 nM with HOP-62 NSCLC; 698 nM in the experiment on MOLT-4 leukemia; 1520 nM with NCI/ADR-RES ovarian; 1700 nM in the experiment on OVCAR-3 ovarian; 1.65 µM with OVCAR-5 ovarian. Further, the GI50 in the experiment on RXF 393 renal was 1370 nM; with SF-295 CNS, 1760 nM; in the experiment with SNB-75 CNS, 1560 nM; in the experiment on SW-620 colon it was 1220 nM. For the same molecule, the TGI with ACHN renal worked out at 2.54 µM; in the experiment on HOP-62 NSCLC, 3.59 µM; in the experiment on MOLT-4 leukemia it was 2.43 µM; in the experiment on NCI/ADR-RES ovarian it was 3.06 µM; in the experiment on OVCAR-3 ovarian, 3.12 µM; with OVCAR-5 ovarian, 3.07 µM. The TGI was 2.73 µM in the experiment on RXF 393 renal, 3.19 µM in the experiment on SF-295 CNS, 2.99 µM in the experiment with SNB-75 CNS and 2.62 µM in the experiment with SW-620 colon.
On to `CN(C)c1ccc(/C=C(\C#N)c2ccccc2)cc1`, for which the GI50 in the experiment with ACHN renal was 901 nM and 688 nM and 1370 nM; in the experiment with HOP-62 NSCLC, 1370 nM and 993 nM and 567 nM; in the experiment on MOLT-4 leukemia, 372 nM and 439 nM and 545 nM; in the experiment with NCI/ADR-RES ovarian, 348 nM and 395 nM and 324 nM; in the experiment on OVCAR-3 ovarian, 272 nM and 398 nM and 365 nM; in the experiment with OVCAR-5 ovarian, 4.51 µM and 17.2 µM and 10.3 µM. Further, the GI50 in the experiment on RXF 393 renal was 394 nM and 662 nM and 817 nM; in the experiment on SF-295 CNS, 225 nM and 421 nM; in the experiment with SNB-75 CNS, 361 nM and 626 nM and 299 nM; in the experiment on SW-620 colon, 280 nM and 447 nM and 444 nM. The TGI is above 100 µM in the experiment with ACHN renal; 59.9 µM and > 100 µM in the experiment on HOP-62 NSCLC; above 100 µM in the experiment on MOLT-4 leukemia; 49.9 µM and > 100 µM and 74.1 µM with NCI/ADR-RES ovarian; 1.22 µM and 3.23 µM and 4.25 µM with OVCAR-3 ovarian; above 100 µM with OVCAR-5 ovarian. For the same molecule, the TGI is 3.09 µM and 5.77 µM in the experiment with RXF 393 renal; 0.99 µM and 5.97 µM in the experiment on SF-295 CNS; above 100 µM in the experiment with SNB-75 CNS; above 100 µM in the experiment on SW-620 colon.
